How the values were obtained:
Histamine H3 receptor [1] = target: T1, Histamine H3 receptor (Homo sapiens, UniProt Q9Y5N1); experiment: Displacement of [3H]NAMH from human full length histamine H3 receptor expressed in rat C6 cells; type: cell-based
Histamine H4 receptor = Histamine H4 receptor (Homo sapiens, UniProt Q9H3N8); experiment: Displacement of [3H]histamine from human histamine H4 receptor expressed in HEK cells; type: cell-based, HEK293; details: read-out: Ki
Histamine H3 receptor [2] = target: T1, Histamine H3 receptor; experiment: Antagonist activity at human full length histamine H3 receptor expressed in HEK293 cells assessed as inhibition of (R)-alpha-methylhistamine-induced intracellular calcium release by FLIPR; type: functional, cell-based
[3] = Oral bioavailability in rat; type: ADME, organism-based; details: in vivo
[4] = Binding affinity at dopamine receptor
[5] = Binding affinity at serotonin receptor
[6] = Selectivity ratio for human adrenergic alpha 2C4 receptor over human H3 receptor
Rattus norvegicus = experiment: Toxicity in rat assessed as CNS side effects at 1.3 to 13 mg/kg, ip; type: organism-based; set-up: dose 1.3-13 mg/kg, route intraperitoneal; details: in vivo
Glucocorticoid receptor = target: T2, Glucocorticoid receptor (Homo sapiens, UniProt P04150); experiment: Binding affinity at glucocorticoid receptor
T2 sequence (P04150 whole entry): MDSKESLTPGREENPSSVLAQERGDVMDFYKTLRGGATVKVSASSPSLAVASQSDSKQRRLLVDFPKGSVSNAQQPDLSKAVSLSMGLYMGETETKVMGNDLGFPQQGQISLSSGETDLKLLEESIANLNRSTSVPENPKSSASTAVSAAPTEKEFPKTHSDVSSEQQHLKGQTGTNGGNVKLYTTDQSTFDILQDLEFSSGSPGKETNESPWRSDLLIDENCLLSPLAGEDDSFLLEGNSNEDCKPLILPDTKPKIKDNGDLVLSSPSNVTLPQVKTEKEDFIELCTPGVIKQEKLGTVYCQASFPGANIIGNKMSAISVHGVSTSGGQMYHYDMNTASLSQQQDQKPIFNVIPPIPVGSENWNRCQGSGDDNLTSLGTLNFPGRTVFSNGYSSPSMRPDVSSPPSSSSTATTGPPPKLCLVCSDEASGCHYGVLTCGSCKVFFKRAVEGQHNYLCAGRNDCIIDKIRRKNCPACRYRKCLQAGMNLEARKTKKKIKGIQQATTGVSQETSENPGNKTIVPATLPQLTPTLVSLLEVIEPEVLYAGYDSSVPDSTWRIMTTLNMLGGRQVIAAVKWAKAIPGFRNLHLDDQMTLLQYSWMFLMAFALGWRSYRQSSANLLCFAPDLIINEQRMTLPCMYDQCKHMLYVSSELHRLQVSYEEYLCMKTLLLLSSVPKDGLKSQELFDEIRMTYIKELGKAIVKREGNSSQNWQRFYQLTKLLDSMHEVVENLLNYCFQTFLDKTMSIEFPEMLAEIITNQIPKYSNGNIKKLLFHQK

Androgen receptor = target: T3, Androgen receptor (Homo sapiens, UniProt P10275); experiment: Binding affinity at androgen receptor
T3 sequence (P10275 whole entry): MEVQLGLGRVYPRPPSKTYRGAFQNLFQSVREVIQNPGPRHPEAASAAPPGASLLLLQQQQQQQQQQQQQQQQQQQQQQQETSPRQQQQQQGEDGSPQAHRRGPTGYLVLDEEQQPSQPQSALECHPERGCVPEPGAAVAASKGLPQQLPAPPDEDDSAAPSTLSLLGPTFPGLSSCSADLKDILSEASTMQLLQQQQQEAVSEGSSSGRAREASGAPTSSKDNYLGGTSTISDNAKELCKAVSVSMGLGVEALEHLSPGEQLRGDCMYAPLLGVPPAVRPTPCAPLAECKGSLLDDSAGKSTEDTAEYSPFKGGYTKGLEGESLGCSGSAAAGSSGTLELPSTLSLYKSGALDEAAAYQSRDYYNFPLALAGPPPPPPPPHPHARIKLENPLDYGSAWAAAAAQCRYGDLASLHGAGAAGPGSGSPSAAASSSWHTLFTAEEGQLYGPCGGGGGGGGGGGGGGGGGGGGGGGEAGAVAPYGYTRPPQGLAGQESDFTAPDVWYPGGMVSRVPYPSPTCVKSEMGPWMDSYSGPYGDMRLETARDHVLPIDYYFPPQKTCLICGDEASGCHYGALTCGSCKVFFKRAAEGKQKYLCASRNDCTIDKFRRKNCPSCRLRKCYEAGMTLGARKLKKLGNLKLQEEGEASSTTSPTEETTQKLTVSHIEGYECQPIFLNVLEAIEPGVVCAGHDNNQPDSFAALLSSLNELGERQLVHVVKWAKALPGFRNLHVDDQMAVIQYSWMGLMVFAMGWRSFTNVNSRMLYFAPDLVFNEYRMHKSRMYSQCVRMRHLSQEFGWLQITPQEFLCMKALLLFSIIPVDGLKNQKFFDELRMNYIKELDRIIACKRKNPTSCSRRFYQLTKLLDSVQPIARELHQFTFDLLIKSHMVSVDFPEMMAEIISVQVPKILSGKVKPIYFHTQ

Progesterone receptor = target: T4, Progesterone receptor (Homo sapiens, UniProt P06401); experiment: Binding affinity at progesterone receptor
T4 sequence (P06401 whole entry): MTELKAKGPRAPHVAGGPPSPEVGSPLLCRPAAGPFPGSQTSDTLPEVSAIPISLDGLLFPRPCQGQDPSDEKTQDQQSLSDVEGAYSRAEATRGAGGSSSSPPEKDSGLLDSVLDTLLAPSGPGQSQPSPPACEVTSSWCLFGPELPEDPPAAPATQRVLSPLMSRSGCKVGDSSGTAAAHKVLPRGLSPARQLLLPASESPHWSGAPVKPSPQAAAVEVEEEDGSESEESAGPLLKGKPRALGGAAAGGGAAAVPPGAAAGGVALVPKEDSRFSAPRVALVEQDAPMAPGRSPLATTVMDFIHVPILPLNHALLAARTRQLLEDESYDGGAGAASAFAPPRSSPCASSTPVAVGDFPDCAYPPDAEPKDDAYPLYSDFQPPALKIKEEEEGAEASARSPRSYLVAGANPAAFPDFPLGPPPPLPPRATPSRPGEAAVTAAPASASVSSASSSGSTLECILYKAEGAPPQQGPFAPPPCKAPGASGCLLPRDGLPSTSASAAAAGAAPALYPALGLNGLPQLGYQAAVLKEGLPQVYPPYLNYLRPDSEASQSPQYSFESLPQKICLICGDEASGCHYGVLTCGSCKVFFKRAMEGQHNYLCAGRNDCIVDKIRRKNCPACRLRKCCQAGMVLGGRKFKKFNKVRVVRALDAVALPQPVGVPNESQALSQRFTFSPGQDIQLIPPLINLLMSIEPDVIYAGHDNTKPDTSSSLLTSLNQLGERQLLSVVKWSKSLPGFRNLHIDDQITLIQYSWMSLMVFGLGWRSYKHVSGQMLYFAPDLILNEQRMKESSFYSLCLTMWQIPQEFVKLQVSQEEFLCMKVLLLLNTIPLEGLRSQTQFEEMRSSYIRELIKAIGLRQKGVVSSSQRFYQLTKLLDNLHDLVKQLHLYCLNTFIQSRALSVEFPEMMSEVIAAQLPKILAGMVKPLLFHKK

Phospholipidosis = experiment: In vitro phospholipidosis index at 6.25 uM compared to amiodarone at 10 uM; type: ADME, cell-based, Hepatocyte; details: hepatocytes
Histamine H3 receptor [7] = target: T1, Histamine H3 receptor; experiment: Antagonist activity at H3 receptor assessed as inhibition of forskolin-induced cAMP release by SPA; type: functional

T1 sequence (Q9Y5N1 whole entry): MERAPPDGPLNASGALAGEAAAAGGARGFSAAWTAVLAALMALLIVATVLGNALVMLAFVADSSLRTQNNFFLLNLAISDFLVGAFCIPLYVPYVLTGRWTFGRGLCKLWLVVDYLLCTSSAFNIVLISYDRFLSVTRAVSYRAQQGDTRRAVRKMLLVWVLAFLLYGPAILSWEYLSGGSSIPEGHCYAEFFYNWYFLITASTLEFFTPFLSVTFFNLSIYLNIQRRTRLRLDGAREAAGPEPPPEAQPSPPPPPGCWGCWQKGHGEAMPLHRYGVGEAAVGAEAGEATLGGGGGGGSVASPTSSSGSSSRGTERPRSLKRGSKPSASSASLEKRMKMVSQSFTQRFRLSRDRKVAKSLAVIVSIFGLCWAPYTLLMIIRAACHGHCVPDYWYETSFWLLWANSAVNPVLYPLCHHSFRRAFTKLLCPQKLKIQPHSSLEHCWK
Sequence of Histamine H4 receptor (Q9H3N8 whole entry): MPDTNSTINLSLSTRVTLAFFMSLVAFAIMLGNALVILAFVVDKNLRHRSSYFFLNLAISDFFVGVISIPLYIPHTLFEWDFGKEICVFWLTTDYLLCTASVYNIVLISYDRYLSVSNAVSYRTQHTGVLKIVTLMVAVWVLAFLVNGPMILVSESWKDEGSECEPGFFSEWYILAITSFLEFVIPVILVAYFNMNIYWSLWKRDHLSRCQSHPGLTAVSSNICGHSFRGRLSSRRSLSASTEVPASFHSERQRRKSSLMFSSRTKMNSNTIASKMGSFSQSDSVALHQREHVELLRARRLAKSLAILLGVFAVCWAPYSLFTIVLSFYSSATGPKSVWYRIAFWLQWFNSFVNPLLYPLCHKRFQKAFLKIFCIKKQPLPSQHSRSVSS

With `CN[C@@H](C(=O)N(C)[C@H]1CC[C@@]2(C)C(=CC[C@H]3[C@@H]4CC[C@@H]5[C@H](C)N(C)C[C@@]54CC[C@@H]32)C1)C(C)C` the Ki (Histamine H3 receptor [1]) was 0.21 nM, the Ki (Histamine H4 receptor) was > 10 µM and the Kb (Histamine H3 receptor [2]) was 4 nM. The bioavailability [3] was 65%, the Ki [4] was > 10 µM and the Ki [5] was > 10 µM. For the same compound, the Selectivity ratio [6] was 370, the Activity (Rattus norvegicus) was “Non-toxic” and the Ki (Glucocorticoid receptor) was > 30 µM. The Ki (Androgen receptor) was > 30 µM, the Ki (Progesterone receptor) was > 30 µM and the Phospholipidosis_index (Phospholipidosis) was 0.42. It also gave a Kb (Histamine H3 receptor [7]) of 4 nM.
